Results on five compounds are retold here after patent US20200254014A1, “ANTIMICROBIAL COMPOSITIONS AND METHODS FOR THEIR PRODUCTION” (National University of Ireland, Galway, priority 2013, published 2020).

For orientation: MIC means the least concentration at which growth counts as inhibited.

The test system of test [1] is E. coli ATCC 25922. The experiment in a line: MIC of iodine based antimicrobials in absence and presence of organic material. The test is classed as cell-based. The text has this:
As a comparison, PVP-1 or povidone iodine, used frequently in hospital setting as a topical antiseptic, was used as a source of free iodine (12).

The subject of test [2] is E. coli ATCC 25922. The test is classed as cell-based. The protocol: In an attempt to induce a tolerance to an antimicrobial, the micro-broth dilution method was utilised, with repeated passaging, with E. coli ATCC 25922 and a number of antibiotics, as well as the composition of the invention containing hydrogen peroxide and potassium iodide. […] Doubling dilutions of antimicrobial compositions were made using a 96 well plate. The well contents were inoculated with 10^4 cfu ml^−1 E. coli ATCC 25922 and allowed to incubate.

Another test concerns S. aureus BH1CC (MRSA). As to conditions: strain isolated from Beaumont hospital; cited from earlier work.

`OO` [Example H2O2, hydrogen peroxide]: the “MIC” value in the test on E. coli ATCC 25922 [1] (broth) lay within 20 to 40 µg/mL. `C[C@H]1COc2c(N3CCN(C)CC3)c(F)cc3c(=O)c(C(=O)O)cn1c23` [levofloxacin]: the “increase in tolerance versus pre-passaging” value in the test on E. coli ATCC 25922 [2] (after 10 passages) is listed as 8 times. Turning to `Cc1onc(-c2ccccc2)c1C(=O)N[C@@H]1C(=O)N2[C@@H]1SC(C)(C)[C@@H]2C(=O)O` [oxacillin], in the test with S. aureus BH1CC (MRSA), the “oxacillin MIC” value is greater than 256 µg/mL. Take polymyxin B: the “resistance of the organism after passaging in presence of the antibiotic” value in the test with E. coli ATCC 25922 [2] (after only 8 passages) is “completely resistant”. In the case of “polyvinylpyrrilidone, PVP-I, also known as povidone-iodine”, the minimal inhibitory concentration (MIC) in the test on E. coli ATCC 25922 [1] (in LB) was greater than 250 µg/mL; in the test on E. coli ATCC 25922 [1] (milk) it was greater than 250 µg/mL; in the test on E. coli ATCC 25922 [1] (saline), 1 to 2 µg/mL.
